One assay concerns the target T1, CB2 receptor (Mus musculus, UniProt P47936).
T1 construct: membranes were prepared from frozen mouse spleen; from tissue; host or cells: mouse spleen
Briefly: biochemical. It counts as binding. As to the method: (§1) The prepared cannabinoid compounds were tested for CB2 receptor binding affinity and for CB1 receptor affinity (to determine selectivity for the CB2 receptor). As used herein, “binding affinity” is represented by the IC50 value which is the concentration of an analog required to occupy the 50% of the total number (Bmax) of the receptors. The lower the IC50 value, the higher the binding affinity. […] The binding affinities (Ki) are expressed in nanomoles (nM).
(§2) The treated membranes were subsequently used in the binding assay described below. Approximately 30 μg of membranes were incubated in silanized 96-well microtiter plate with TME containing 0.1% essentially fatty acid-free bovine serum albumin (BSA), 0.8 nM [^3H] CP-55,940, and various concentrations of test materials at 30° C. for 1 hour. The samples were immediately filtered using a Packard Filtermate 196 and Whatman GF/C filterplates and washed with wash buffer (TME) containing 0.5% BSA. Radioactivity was detected using MicroScint 20 scintillation cocktail added directly to the dried filterplates, and the filterplates were counted using a Packard Instruments Top-Count. Nonspecific binding was assessed using 100 nM CP-55,940. Data collected from three independent experiments performed with duplicate determinations was normalized between 100% and 0% specific binding for [^3H] CP-55,940, determined using buffer and 100 nM CP-55,940. The normalized data was analyzed using a 4-parameter nonlinear logistic equation to yield IC50 values. Data from at least two independent experiments performed in duplicate was used to calculate IC50 values which were converted to Ki values using the using the assumptions of Cheng et al; “Relationship Between the Inhibition Constant (Ki) and the concentration of Inhibitor which causes 50% Inhibition (IC50) of an Enzymatic Reaction”, Biochem. Pharmacol., 22, 3099-3102, (1973), which is incorporated by reference herein.
For the CB2 receptor binding studies, membranes were prepared from frozen mouse spleen essentially according to the procedure of P. R. Dodd et al; “A Rapid Method for Preparing Synaptosomes: Comparison with Alternative Procedures”, Brain Res., 226, 107-118 (1981) which is incorporated by reference herein. Silanized centrifuge tubes were used throughout to minimize receptor loss due to adsorption. The CB2 binding assay was conducted in the same manner as the CB1 binding assay. The binding affinities (Ki) were also expressed in nanomoles (nM).

The next assay addresses CB2 (Homo sapiens, UniProt P34972). Briefly: Intracellular cyclic AMP levels, comparative protein binding assay (adenylate cyclase inhibition). Type of assay: cell-based. Conditions: intracellular cAMP. As to the method: Intracellular cyclic AMP (cAMP) levels are measured with a comparative protein binding assay (materials available from Diagnostic Products, Inc. of Carlsbad, Calif.) generally according to the method described in Tao, Q. and M. E. Abood; “Mutation of a highly conserved aspartate residue in the second transmembrane domain of the cannabinoid receptors, CB1 and CB2, disrupts G-protein coupling”, J Pharmacol Exp Ther, 1998, 285(2): pp. 651-658, which is incorporated by reference herein. […] The IC50 value for Compound 2 was 8 nM.

In a further assay the target is T2, CB1 cannabinoid receptor (Rattus norvegicus, UniProt P20272).
T2 construct: membranes were prepared from rat forebrain membranes; from tissue; host or cells: rat forebrain
Briefly: CB1 receptor binding, [3H] CP-55,940 displacement, rat forebrain membranes. Conditions: rat forebrain membranes, 0.8 nM [3H] CP-55,940; read-out: Ki(nM) CB1. Here is the method: as §1
For the CB1 receptor binding studies, membranes were prepared from rat forebrain membranes according to the procedure of P. R. Dodd et al; A Rapid Method for Preparing Synaptosomes: Comparison with Alternative Procedures, Brain Res., 107-118 (1981). The binding of the novel analogues to the CB1 cannabinoid receptor was assessed as described in W. A. Devane et al; Determination and Characterization of a Cannabinoid Receptor in a Rat Brain, Mol. Pharmacol., 34, 605-613 (1988) and A. Charalambous et al; “5′-azido ^8−THC: A Novel Photoaffinity Label for the Cannabinoid Receptor”, J. Med. Chem., 35, 3076-3079 (1992) with the following changes. The above articles are incorporated by reference herein.
Membranes, previously frozen at −80° C., were thawed on ice. To the stirred suspension was added three volumes of TME (25 mM Tris-HCl buffer, 5 mM MgCl2 and 1 mM EDTA) at a pH 7.4. The suspension was incubated at 40° C. for 30 min. At the end of the incubation, the membranes were pelleted and washed three times with TME.
as §2

Consider one compound from patent US7329651B2 (priority 2001, dated 2008).

Chain of CB2 (P34972 whole entry, species assumed, the tested form may be a part): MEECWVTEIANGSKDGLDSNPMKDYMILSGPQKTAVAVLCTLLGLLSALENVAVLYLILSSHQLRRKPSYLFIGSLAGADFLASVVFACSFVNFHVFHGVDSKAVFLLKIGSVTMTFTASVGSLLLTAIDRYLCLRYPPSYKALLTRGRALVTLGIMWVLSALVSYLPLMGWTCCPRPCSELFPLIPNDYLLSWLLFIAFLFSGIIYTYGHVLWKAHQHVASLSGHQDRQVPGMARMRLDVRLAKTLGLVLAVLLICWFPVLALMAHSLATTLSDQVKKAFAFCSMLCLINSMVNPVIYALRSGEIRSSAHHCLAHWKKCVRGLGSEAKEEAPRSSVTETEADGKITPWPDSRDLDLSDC
T1 sequence (P47936 whole entry): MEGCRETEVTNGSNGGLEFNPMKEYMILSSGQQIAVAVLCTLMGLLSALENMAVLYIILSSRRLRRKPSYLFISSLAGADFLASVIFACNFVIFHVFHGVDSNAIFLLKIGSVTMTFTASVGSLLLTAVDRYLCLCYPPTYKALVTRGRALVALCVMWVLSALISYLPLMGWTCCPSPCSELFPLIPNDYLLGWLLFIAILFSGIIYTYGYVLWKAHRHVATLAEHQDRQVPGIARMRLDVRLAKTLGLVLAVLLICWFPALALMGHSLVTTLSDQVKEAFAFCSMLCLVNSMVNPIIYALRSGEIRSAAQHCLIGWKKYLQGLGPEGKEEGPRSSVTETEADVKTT
T2 sequence (P20272 whole entry): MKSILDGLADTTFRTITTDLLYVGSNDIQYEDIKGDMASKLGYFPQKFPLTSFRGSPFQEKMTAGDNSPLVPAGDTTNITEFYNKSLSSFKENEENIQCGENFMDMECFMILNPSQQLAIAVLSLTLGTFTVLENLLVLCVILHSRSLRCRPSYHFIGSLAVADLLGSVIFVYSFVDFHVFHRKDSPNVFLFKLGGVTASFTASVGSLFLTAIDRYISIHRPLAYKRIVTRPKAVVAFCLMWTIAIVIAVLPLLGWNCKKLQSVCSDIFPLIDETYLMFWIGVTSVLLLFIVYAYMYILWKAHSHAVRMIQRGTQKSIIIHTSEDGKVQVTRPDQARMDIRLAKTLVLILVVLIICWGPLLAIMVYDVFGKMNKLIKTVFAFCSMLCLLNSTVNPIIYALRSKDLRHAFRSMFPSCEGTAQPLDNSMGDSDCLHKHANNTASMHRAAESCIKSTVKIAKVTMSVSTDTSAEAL

The Ki is a dissociation constant, usually derived from enzyme kinetics or from competition with a known ligand. As usually defined, the IC50 is the midpoint of a concentration-inhibition curve. Take `CCOC(=O)C1=NN(c2ccccc2)C(C(=O)OCC)=NN1c1ccccc1` [compound 2]: the Ki amounted to 19 nM at CB2 receptor (mouse spleen membranes, [3H] CP-55,940, read-out: Ki(nM) CB2) and 1670 nM at CB1 cannabinoid receptor. Further, the “Selectivity for CB2” value on CB2 receptor (ratio of CB1 Ki to CB2 Ki) is recorded as 88. Also, the “effect on formation of cyclic AMP” value at CB2 (adenylate cyclase) is reported as “reduce formation of cyclic AMP by inhibiting adenylate cyclase”. The IC50 at CB2 (read-out: IC50 value, reduction of cyclic AMP formation) was 8 nM.
